The assay addresses BACE1 (Homo sapiens (Human), UniProt P56817). Briefly: BACE1 Cell-Free Assay (fluorescence polarization). The format is biochemical. Conditions: read-out: BACE1 Cell-free Assay IC50. The text has this: This assay measures the inhibition of the beta-secretase enzyme as it cleaves a non-native peptide.
A synthetic APP substrate that can be cleaved by beta-secretase having N-terminal biotin and made fluorescent by the covalent attachment of Oregon Green at the Cys residue is used to assay beta-secretase activity in the presence or absence of the inhibitory compounds. […] The BACE1 enzyme is affinity purified material from conditioned media of CHO-K1 cells that have been transfected with a soluble BACE construct (BACE1deltaTM96His). […] Plates are covered and incubated for 3 hours at 37° C. […] The activity of the beta-secretase enzyme is detected by changes in the fluorescence polarization that occur when the substrate is cleaved by the enzyme.
(Fluorescence polarisation rises when a labelled molecule tumbles more slowly, as on binding a larger partner.)

Setting [1] is: geometric mean of 2-4 determinations unless otherwise indicated (b: ≧5; c: single determination).

Structures can show the parent of a compound that is named as a salt. Where two headings read alike, the source gives them in different places.

BACE1, sequence (P56817 46-457): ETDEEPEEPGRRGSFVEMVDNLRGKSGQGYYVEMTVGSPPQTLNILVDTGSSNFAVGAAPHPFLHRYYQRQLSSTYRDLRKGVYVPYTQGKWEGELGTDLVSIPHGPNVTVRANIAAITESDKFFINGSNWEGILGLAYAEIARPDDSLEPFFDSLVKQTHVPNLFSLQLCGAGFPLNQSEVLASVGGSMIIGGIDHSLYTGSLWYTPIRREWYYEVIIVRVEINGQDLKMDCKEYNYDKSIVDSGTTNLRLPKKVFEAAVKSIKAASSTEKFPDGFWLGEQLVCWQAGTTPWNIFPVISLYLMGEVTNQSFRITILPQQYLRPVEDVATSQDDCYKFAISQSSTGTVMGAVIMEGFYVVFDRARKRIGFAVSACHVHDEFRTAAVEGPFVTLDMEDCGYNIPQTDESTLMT

In the case of `C[C@H]1C[C@H]2CSC(N)=N[C@@]2(c2nc(NC(=O)c3ccc(C(F)F)cn3)cs2)CO1` [Example 25, N-{2-[(4aR,6S,8aR)-2-amino-6-methyl-4,4a,5,6-tetrahydropyrano[3,4-d][1,3]thiazin-8a(8H)-yl]-1,3-thiazol-4-yl}-5-(difluoromethyl)pyridine-2-carboxamide], under setting [1], the concentration for half-maximal inhibition (IC50) (in general, the midpoint of a concentration-inhibition curve) stood at 74 nM.

On to `C[C@H]1C[C@H]2CSC(N)=N[C@@]2(c2nc(NC(=O)c3ccc(OCF)cn3)cs2)CO1` [Example 26, N-{2-[(4aR,6S,8aR)-2-amino-6-methyl-4,4a,5,6-tetrahydropyrano[3,4-d][1,3]thiazin-8a(8H)-yl]-1,3-thiazol-4-yl}-5-(fluoromethoxy)pyridine-2-carboxamide], for which the IC50 under setting [1] turned out to be 68 nM.

`C[C@H]1C[C@H]2CSC(N)=N[C@@]2(c2nc(NC(=O)c3coc(C4CC4)n3)cs2)CO1` [Example 27, N-{2-[(4aR,6S,8aR)-2-amino-6-methyl-4,4a,5,6-tetrahydropyrano[3,4-d][1,3]thiazin-8a(8H)-yl]-1,3-thiazol-4-yl}-2-cyclopropyl-1,3-oxazole-4-carboxamide]: the IC50 under setting [1] was found to be 1310 nM.

Take `C[C@H]1C[C@H]2CSC(N)=N[C@@]2(c2nc(NC(=O)c3cnccn3)cs2)CO1` [Example 28, N-{2-[(4aR,6S,8aR)-2-amino-6-methyl-4,4a,5,6-tetrahydropyrano[3,4-d][1,3]thiazin-8a(8H)-yl]-1,3-thiazol-4-yl}pyrazine-2-carboxamide]: the IC50 under setting [1] came out at 647 nM.

Consider `Cc1nn(C)cc1C(=O)Nc1csc([C@]23CO[C@@H](C)C[C@H]2CSC(N)=N3)n1` [Example 29, N-{2-[(4aR,6S,8aR)-2-amino-6-methyl-4,4a,5,6-tetrahydropyrano[3,4-d][1,3]thiazin-8a(8H)-yl]-1,3-thiazol-4-yl}-1,3-dimethyl-1H-pyrazole-4-carboxamide], for which the half-inhibitory concentration (IC50) under setting [1] came to 1990 nM.

For the molecule `C[C@H]1C[C@H]2CSC(N)=N[C@@]2(c2nc(NC(=O)c3cccnn3)cs2)CO1` [Example 30, N-{2-[(4aR,6S,8aR)-2-amino-6-methyl-4,4a,5,6-tetrahydropyrano[3,4-d][1,3]thiazin-8a(8H)-yl]-1,3-thiazol-4-yl}pyridazine-3-carboxamide], the IC50 under setting [1] was found to be 2160 nM.

As to `C[C@H]1C[C@H]2CSC(N)=N[C@@]2(c2nc(NC(=O)c3cc(C4CC4)on3)cs2)CO1` [Example 31, N-{2-[(4aR,6S,8aR)-2-amino-6-methyl-4,4a,5,6-tetrahydropyrano[3,4-d][1,3]thiazin-8a(8H)-yl]-1,3-thiazol-4-yl}-5-cyclopropyl-1,2-oxazole-3-carboxamide], the IC50 under setting [1] amounted to 3820 nM.

In the case of `C[C@H]1C[C@H]2CSC(N)=N[C@@]2(c2nc(NC(=O)c3cc(C(F)(F)F)on3)cs2)CO1` [Example 32, N-{2-[(4aR,6S,8aR)-2-amino-6-methyl-4,4a,5,6-tetrahydropyrano[3,4-d][1,3]thiazin-8a(8H)-yl]-1,3-thiazol-4-yl}-5-(trifluoromethyl)-1,2-oxazole-3-carboxamide, trifluoroacetate salt], the IC50 under setting [1] was found to be 1400 nM.

Regarding `C[C@H]1C[C@H]2CSC(N)=N[C@@]2(c2nc(NC(=O)c3cn(C4CCC4)cn3)cs2)CO1` [Example 33, N-{2-[(4aR,6S,8aR)-2-amino-6-methyl-4,4a,5,6-tetrahydropyrano[3,4-d][1,3]thiazin-8a(8H)-yl]-1,3-thiazol-4-yl}-1-cyclobutyl-1H-imidazole-4-carboxamide], under setting [1], the IC50 stood at 34100 nM.

For the molecule `C[C@H]1C[C@H]2CSC(N)=N[C@@]2(c2nc(NC(=O)c3cc(C4CCC4)nn3C)cs2)CO1` [Example 34, N-{2-[(4aR,6S,8aR)-2-amino-6-methyl-4,4a,5,6-tetrahydropyrano[3,4-d][1,3]thiazin-8a(8H)-yl]-1,3-thiazol-4-yl}-3-cyclobutyl-1-methyl-1H-pyrazole-5-carboxamide], under setting [1], the 50% inhibitory concentration (IC50) was 1480 nM.

On to `COCc1cc(C(=O)Nc2csc([C@]34CO[C@@H](C)C[C@H]3CSC(N)=N4)n2)no1` [Example 35, N-{2-[(4aR,6S,8aR)-2-amino-6-methyl-4,4a,5,6-tetrahydropyrano[3,4-d][1,3]thiazin-8a(8H)-yl]-1,3-thiazol-4-yl}-5-(methoxymethyl)-1,2-oxazole-3-carboxamide], for which the IC50 under setting [1] was 5860 nM.

In the case of `C[C@H]1C[C@H]2CSC(N)=N[C@@]2(c2nc(NC(=O)c3ccc(=O)n(C)c3)cs2)CO1` [Example 36, N-{2-[(4aR,6S,8aR)-2-amino-6-methyl-4,4a,5,6-tetrahydropyrano[3,4-d][1,3]thiazin-8a(8H)-yl]-1,3-thiazol-4-yl}-1-methyl-6-oxo-1,6-dihydropyridine-3-carboxamide], under setting [1], the IC50 was 1410 nM.

Regarding `C[C@H]1C[C@H]2CSC(N)=N[C@@]2(c2nc(NC(=O)c3ccc(OCC(F)F)cn3)cs2)CO1` [Example 37, N-{2-[(4aR,6S,8aR)-2-amino-6-methyl-4,4a,5,6-tetrahydropyrano[3,4-d][1,3]thiazin-8a(8H)-yl]-1,3-thiazol-4-yl}-5-(2,2-difluoroethoxy)pyridine-2-carboxamide, formate salt], the IC50 was 485 nM.

With `Cc1nc(C(=O)Nc2csc([C@]34CO[C@@H](C)C[C@H]3CSC(N)=N4)n2)c(C(F)(F)F)o1` [Example 38, N-{2-[(4aR,6S,8aR)-2-amino-6-methyl-4,4a,5,6-tetrahydropyrano[3,4-d][1,3]thiazin-8a(8H)-yl]-1,3-thiazol-4-yl}-2-methyl-5-(trifluoromethyl)-1,3-oxazole-4-carboxamide, trifluoroacetate salt], the IC50 under setting [1] worked out at 145 nM.

As for `CCc1cc(C(=O)Nc2csc([C@]34CO[C@@H](C)C[C@H]3CSC(N)=N4)n2)n(C)n1` [Example 39, N-{2-[(4aR,6S,8aR)-2-amino-6-methyl-4,4a,5,6-tetrahydropyrano[3,4-d][1,3]thiazin-8a(8H)-yl]-1,3-thiazol-4-yl}-3-ethyl-1-methyl-1H-pyrazole-5-carboxamide, trifluoroacetate salt], the IC50 came out at 369 nM.

Consider `C[C@H]1C[C@H]2CSC(N)=N[C@@]2(c2nc(NC(=O)c3cnn(C)n3)cs2)CO1` [Example 40, N-{2-[(4aR,6S,8aR)-2-amino-6-methyl-4,4a,5,6-tetrahydropyrano[3,4-d][1,3]thiazin-8a(8H)-yl]-1,3-thiazol-4-yl}-2-methyl-2H-1,2,3-triazole-4-carboxamide, trifluoroacetate salt], for which the IC50 is 134 nM.

With `Cc1cc(C(=O)Nc2csc([C@]34CO[C@@H](C)C[C@H]3CSC(N)=N4)n2)n(C)n1` [Example 41, N-{2-[(4aR,6S,8aR)-2-amino-6-methyl-4,4a,5,6-tetrahydropyrano[3,4-d][1,3]thiazin-8a(8H)-yl]-1,3-thiazol-4-yl}-1,3-dimethyl-1H-pyrazole-5-carboxamide, trifluoroacetate salt], the IC50 under setting [1] was determined as 364 nM.

As to `CCc1nc(C(=O)Nc2csc([C@]34CO[C@@H](C)C[C@H]3CSC(N)=N4)n2)co1` [Example 42, N-{2-[(4aR,6S,8aR)-2-amino-6-methyl-4,4a,5,6-tetrahydropyrano[3,4-d][1,3]thiazin-8a(8H)-yl]-1,3-thiazol-4-yl}-2-ethyl-1,3-oxazole-4-carboxamide, trifluoroacetate salt], the IC50 under setting [1] was 341 nM.

On to `C[C@H]1C[C@H]2CSC(N)=N[C@@]2(c2nc(NC(=O)c3ncn(C)n3)cs2)CO1` [Example 43, N-{2-[(4aR,6S,8aR)-2-amino-6-methyl-4,4a,5,6-tetrahydropyrano[3,4-d][1,3]thiazin-8a(8H)-yl]-1,3-thiazol-4-yl}-1-methyl-1H-1,2,4-triazole-3-carboxamide, trifluoroacetate salt], for which, under setting [1], the IC50 was 435 nM.

As to `C[C@H]1C[C@H]2CSC(N)=N[C@@]2(c2nc(NC(=O)c3ccc(OC(C)(F)F)cn3)cs2)CO1` [Example 44, N-{2-[(4aR,6S,8aR)-2-amino-6-methyl-4,4a,5,6-tetrahydropyrano[3,4-d][1,3]thiazin-8a(8H)-yl]-1,3-thiazol-4-yl}-5-(1,1-difluoroethoxy)pyridine-2-carboxamide], the IC50 under setting [1] worked out at 185 nM.

On to `COc1cnc(C(=O)Nc2csc([C@]34CO[C@@H](C)C[C@H]3CSC(N)=N4)n2)c(C)n1` [Example 46, N-{2-[(4aR,6S,8aR)-2-amino-6-methyl-4,4a,5,6-tetrahydropyrano[3,4-d][1,3]thiazin-8a(8H)-yl]-1,3-thiazol-4-yl}-5-methoxy-3-methylpyrazine-2-carboxamide], for which the IC50 under setting [1] came out at 320 nM.

Regarding `COc1cnc(C(=O)Nc2csc([C@]34CO[C@@H](C)C[C@H]3CSC(N)=N4)n2)c(C)c1` [Example 47, N-{2-[(4aR,6S,8aR)-2-amino-6-methyl-4,4a,5,6-tetrahydropyrano[3,4-d][1,3]thiazin-8a(8H)-yl]-1,3-thiazol-4-yl}-5-methoxy-3-methylpyridine-2-carboxamide], the IC50 under setting [1] came to 101 nM.

For the molecule `C[C@H]1C[C@H]2CSC(N)=N[C@@]2(c2nc(NC(=O)c3ccc(OC(F)F)nc3)cs2)CO1` [Example 48, N-{2-[(4aR,6S,8aR)-2-amino-6-methyl-4,4a,5,6-tetrahydropyrano[3,4-d][1,3]thiazin-8a(8H)-yl]-1,3-thiazol-4-yl}-6-(difluoromethoxy)pyridine-3-carboxamide], under setting [1], the IC50 is 232 nM.

For `Cc1nc(C(=O)Nc2csc([C@]34CO[C@@H](C)C[C@H]3CSC(N)=N4)n2)co1` [Example 49, N-{2-[(4aR,6S,8aR)-2-amino-6-methyl-4,4a,5,6-tetrahydropyrano[3,4-d][1,3]thiazin-8a(8H)-yl]-1,3-thiazol-4-yl}-2-methyl-1,3-oxazole-4-carboxamide], the IC50 under setting [1] was 103 nM.

For the origin of these results see patent US9315520B2, “2-amino-6-methyl-4,4a,5,6-tetrahydropyrano[3,4-d][1,3]thiazin-8a(8H)-yl-1,3-thiazol-4-yl amides” (Pfizer Inc., priority 2014, dated 2016).
